Laboratory results: patent US12404295B2, “(Hetero)aryl-methyl-thio-beta-D-galactopyranoside derivatives” (Idorsia Pharmaceuticals Ltd, priority 2019, dated 2025)
Where two headings read alike, the source gives them in different places.

Key:
human Gal-3 (hGal-3) = human Gal-3 (hGal-3) (Homo sapiens (Human), UniProt P17931); assay: competitive binding assay: biotinylated hGal-3 binding to microplate-adsorbed asialofetuin (ASF)
How it was run: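 Serially diluted compounds compete with biotinylated hGal-3 binding to adsorbed asialofetuin (3 hours, 4° C). After washing, streptavidin-peroxidase at 80 ng/mL for 1 hour at 4° C, with ABTS colour read-out. IC50 values are averaged over repeated runs.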

human Gal-1 (hGal-1) = human Gal-1 (hGal-1) (Homo sapiens (Human), UniProt P09382); assay: competitive binding assay: biotinylated hGal-1 binding to microplate-adsorbed asialofetuin (ASF); settings: Table 15; read-out: IC50 (Galectin-1 inhibition)
Sequence of human Gal-1 (hGal-1) (P09382 whole entry): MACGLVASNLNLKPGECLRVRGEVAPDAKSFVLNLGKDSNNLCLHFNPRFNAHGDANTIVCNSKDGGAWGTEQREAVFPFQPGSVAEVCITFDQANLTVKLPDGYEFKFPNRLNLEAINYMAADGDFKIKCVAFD
How it was run: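 Spectrophotometric competition readout: after compound and biotinylated hGal-1 (300-1000 ng/mL) sit 3 h at 4° C on adsorbed asialofetuin, streptavidin-peroxidase (1 h, 4° C) and ABTS reveal residual binding. Reported IC50 values are means of repeat runs.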

[1] = Gal-3 inhibition, binding of biotinylated hGal-3 to ASF, mean values, read-out: IC50
[2] = Table 5, read-out: IC50 (Gal-3 inhibition)

Sequence of human Gal-3 (hGal-3) (P17931 whole entry): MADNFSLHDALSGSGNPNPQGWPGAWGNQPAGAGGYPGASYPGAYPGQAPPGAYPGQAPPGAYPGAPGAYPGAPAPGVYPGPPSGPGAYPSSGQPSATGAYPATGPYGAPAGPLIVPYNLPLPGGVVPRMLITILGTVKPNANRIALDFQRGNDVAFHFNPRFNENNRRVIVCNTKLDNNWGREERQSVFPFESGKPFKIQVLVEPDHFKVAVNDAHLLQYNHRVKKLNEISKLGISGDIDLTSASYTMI

SMILES	IC50 (human Gal-3 (hGal-3); [1])	IC50 (human Gal-1 (hGal-1))	IC50 (human Gal-3 (hGal-3); [2])
Cc1conc1C(S[C@@H]1O[C@H](CO)[C@H](O)[C@H](n2cc(-c3cc(F)c(F)c(F)c3)nn2)[C@H]1O)C(C)(C)O (stereo partly drawn) [Example 2.31.120., (2S,3R,4S,5R,6R)-2-((2-Hydroxy-2-methyl-1-(4-methylisoxazol-3-yl)propyl)thio)-6-(hydroxymethyl)-4-(4-(3,4,5-trifluorophenyl)-1H-1,2,3-triazol-1-yl)tetrahydro-2H-pyran-3,5-diol]	730 nM	3 µM	–
Cc1conc1[C@@H](S[C@@H]1O[C@H](CO)[C@H](O)[C@H](n2cc(-c3cc(F)c(F)c(F)c3)nn2)[C@H]1O)C(C)(C)O [Example 2.31.120R., (2S,3R,4S,5R,6R)-2-(((R)-2-Hydroxy-2-methyl-1-(4-methylisoxazol-3-yl)propyl)thio)-6-(hydroxymethyl)-4-(4-(3,4,5-trifluorophenyl)-1H-1,2,3-triazol-1-yl)tetrahydro-2H-pyran-3,5-diol]	320 nM	1.8 µM	–
Cc1conc1[C@H](S[C@@H]1O[C@H](CO)[C@H](O)[C@H](n2cc(-c3cc(F)c(F)c(F)c3)nn2)[C@H]1O)C(C)(C)O [Example 2.31.120S., (2S,3R,4S,5R,6R)-2-(((S)-2-Hydroxy-2-methyl-1-(4-methylisoxazol-3-yl)propyl)thio)-6-(hydroxymethyl)-4-(4-(3,4,5-trifluorophenyl)-1H-1,2,3-triazol-1-yl)tetrahydro-2H-pyran-3,5-diol]	12400 nM	61.3 µM	–
Cc1noc(C)c1C(S[C@@H]1O[C@H](CO)[C@H](O)[C@H](n2cc(-c3cc(F)c(F)c(F)c3)nn2)[C@H]1O)C(C)(C)O (stereo partly drawn) [Example 2.31.121., (2S,3R,4S,5R,6R)-2-((1-(3,5-Dimethylisoxazol-4-yl)-2-hydroxy-2-methylpropyl)thio)-6-(hydroxymethyl)-4-(4-(3,4,5-trifluorophenyl)-1H-1,2,3-triazol-1-yl)tetrahydro-2H-pyran-3,5-diol]	710 nM	5.03 µM	–
Cc1nc(C(S[C@@H]2O[C@H](CO)[C@H](O)[C@H](n3cc(-c4cc(F)c(F)c(F)c4)nn3)[C@H]2O)C(C)(C)O)c(C)o1 (stereo partly drawn) [Example 2.31.122., (2S,3R,4S,5R,6R)-2-((1-(2,5-Dimethyloxazol-4-yl)-2-hydroxy-2-methylpropyl)thio)-6-(hydroxymethyl)-4-(4-(3,4,5-trifluorophenyl)-1H-1,2,3-triazol-1-yl)tetrahydro-2H-pyran-3,5-diol]	880 nM	2.14 µM	–
Cc1nc([C@@H](S[C@@H]2O[C@H](CO)[C@H](O)[C@H](n3cc(-c4cc(F)c(F)c(F)c4)nn3)[C@H]2O)C(C)(C)O)c(C)o1 [Example 2.31.122R., (2S,3R,4S,5R,6R)-2-(((R)-1-(2,5-Dimethyloxazol-4-yl)-2-hydroxy-2-methylpropyl)thio)-6-(hydroxymethyl)-4-(4-(3,4,5-trifluorophenyl)-1H-1,2,3-triazol-1-yl)tetrahydro-2H-pyran-3,5-diol]	370 nM	0.67 µM	–
Cc1nc([C@H](S[C@@H]2O[C@H](CO)[C@H](O)[C@H](n3cc(-c4cc(F)c(F)c(F)c4)nn3)[C@H]2O)C(C)(C)O)c(C)o1 [Example 2.31.122S., (2S,3R,4S,5R,6R)-2-(((S)-1-(2,5-dimethyloxazol-4-yl)-2-hydroxy-2-methylpropyl)thio)-6-(hydroxymethyl)-4-(4-(3,4,5-trifluorophenyl)-1H-1,2,3-triazol-1-yl)tetrahydro-2H-pyran-3,5-diol]	4120 nM	11.2 µM	–
Cc1cscc1C(S[C@@H]1O[C@H](CO)[C@H](O)[C@H](n2cc(-c3cc(F)c(F)c(F)c3)nn2)[C@H]1O)C(C)(C)O (stereo partly drawn) [Example 2.31.124., (2S,3R,4S,5R,6R)-2-((2-Hydroxy-2-methyl-1-(4-methylthiophen-3-yl)propyl)thio)-6-(hydroxymethyl)-4-(4-(3,4,5-trifluorophenyl)-1H-1,2,3-triazol-1-yl)tetrahydro-2H-pyran-3,5-diol]	500 nM	5.15 µM	–
CCC(O)(CC)[C@H](S[C@@H]1O[C@H](CO)[C@H](O)[C@H](n2cc(-c3cc(F)c(F)c(F)c3)nn2)[C@H]1O)c1conc1C [Example 2.32.120R., (2S,3R,4S,5R,6R)-2-(((R)-2-Ethyl-2-hydroxy-1-(3-methylisoxazol-4-yl)butyl)thio)-6-(hydroxymethyl)-4-(4-(3,4,5-trifluorophenyl)-1H-1,2,3-triazol-1-yl)tetrahydro-2H-pyran-3,5-diol]	1220 nM	2.83 µM	–
CCC(O)(CC)[C@@H](S[C@@H]1O[C@H](CO)[C@H](O)[C@H](n2cc(-c3cc(F)c(F)c(F)c3)nn2)[C@H]1O)c1conc1C [Example 2.32.120S., (2S,3R,4S,5R,6R)-2-(((S)-2-Ethyl-2-hydroxy-1-(3-methylisoxazol-4-yl)butyl)thio)-6-(hydroxymethyl)-4-(4-(3,4,5-trifluorophenyl)-1H-1,2,3-triazol-1-yl)tetrahydro-2H-pyran-3,5-diol]	11300 nM	77.4 µM	–
OC[C@H]1O[C@@H](SC(c2ccccc2C(F)(F)F)C2(O)CC(F)(F)C2)[C@H](O)[C@@H](n2cc(-c3cc(F)c(F)c(F)c3)nn2)[C@H]1O (stereo partly drawn) [Example 2.33.112., (2S,3R,4S,5R,6R)-2-(((3,3-Difluoro-1-hydroxycyclobutyl)(2-(trifluoromethyl)phenyl)methyl)thio)-6-(hydroxymethyl)-4-(4-(3,4,5-trifluorophenyl)-1H-1,2,3-triazol-1-yl)tetrahydro-2H-pyran-3,5-diol]	–	1.8 µM	250 nM
OC[C@H]1O[C@@H](S[C@H](c2ccccc2C(F)(F)F)C2(O)CC(F)(F)C2)[C@H](O)[C@@H](n2cc(-c3cc(F)c(F)c(F)c3)nn2)[C@H]1O [Example 2.33.112R., (2S,3R,4S,5R,6R)-2-(((R)-(3,3-Difluoro-1-hydroxycyclobutyl)(2-(trifluoromethyl)phenyl)methyl)thio)-6-(hydroxymethyl)-4-(4-(3,4,5-trifluorophenyl)-1H-1,2,3-triazol-1-yl)tetrahydro-2H-pyran-3,5-diol]	–	0.67 µM	140 nM
OC[C@H]1O[C@@H](S[C@@H](c2ccccc2C(F)(F)F)C2(O)CC(F)(F)C2)[C@H](O)[C@@H](n2cc(-c3cc(F)c(F)c(F)c3)nn2)[C@H]1O [Example 2.33.112S.]	–	21.7 µM	11300 nM

The remaining lines, values ahead:

IC50 (human Gal-3 (hGal-3); [1])	IC50 (human Gal-1 (hGal-1))	IC50 (human Gal-3 (hGal-3); [2])	SMILES
–	11 µM	1000 nM	Cc1ccccc1C(S[C@@H]1O[C@H](CO)[C@H](O)[C@H](n2cc(-c3cc(F)c(F)c(F)c3)nn2)[C@H]1O)C1(O)CCC1 (stereo partly drawn) [Example 2.34.102., (2S,3R,4S,5R,6R)-2-(((1-Hydroxycyclobutyl)(o-tolyl)methyl)thio)-6-(hydroxymethyl)-4-(4-(3,4,5-trifluorophenyl)-1H-1,2,3-triazol-1-yl)tetrahydro-2H-pyran-3,5-diol]
–	6.22 µM	350 nM	Cc1ccccc1C(S[C@@H]1O[C@H](CO)[C@H](O)[C@H](n2cc(-c3cc(F)c(F)c(F)c3)nn2)[C@H]1O)C1(O)CC(C)(C)C1 (stereo partly drawn) [Example 2.35.102., (2S,3R,4S,5R,6R)-2-(((1-Hydroxy-3,3-dimethylcyclobutyl)(o-tolyl)methyl)thio)-6-(hydroxymethyl)-4-(4-(3,4,5-trifluorophenyl)-1H-1,2,3-triazol-1-yl)tetrahydro-2H-pyran-3,5-diol]
–	13.2 µM	460 nM	Cc1ccccc1C(S[C@@H]1O[C@H](CO)[C@H](O)[C@H](n2cc(-c3cc(F)c(F)c(F)c3)nn2)[C@H]1O)C1(O)CC(C)C1 (stereo partly drawn) [Example 2.36.102., (2S,3R,4S,5R,6R)-2-(((1-Hydroxy-3-methylcyclobutyl)(o-tolyl)methyl)thio)-6-(hydroxymethyl)-4-(4-(3,4,5-trifluorophenyl)-1H-1,2,3-triazol-1-yl)tetrahydro-2H-pyran-3,5-diol]
–	3.5 µM	440 nM	Cc1ccccc1[C@@H](S[C@@H]1O[C@H](CO)[C@H](O)[C@H](n2cc(-c3cc(F)c(F)c(F)c3)nn2)[C@H]1O)C1(O)CC(C)C1 (stereo partly drawn) [Example 2.36.102R., (2S,3R,4S,5R,6R)-2-(((1R)-(1-Hydroxy-3-methylcyclobutyl)(o-tolyl)methyl)thio)-6-(hydroxymethyl)-4-(4-(3,4,5-trifluorophenyl)-1H-1,2,3-triazol-1-yl)tetrahydro-2H-pyran-3,5-diol]
–	54.2 µM	7200 nM	Cc1ccccc1[C@H](S[C@@H]1O[C@H](CO)[C@H](O)[C@H](n2cc(-c3cc(F)c(F)c(F)c3)nn2)[C@H]1O)C1(O)CC(C)C1 (stereo partly drawn) [Example 2.36.102S., (2S,3R,4S,5R,6R)-2-(((1S)-(1-Hydroxy-3-methylcyclobutyl)(o-tolyl)methyl)thio)-6-(hydroxymethyl)-4-(4-(3,4,5-trifluorophenyl)-1H-1,2,3-triazol-1-yl)tetrahydro-2H-pyran-3,5-diol]
–	5.36 µM	560 nM	Cc1ccccc1C(S[C@@H]1O[C@H](CO)[C@H](O)[C@H](n2cc(-c3cc(F)c(F)c(F)c3)nn2)[C@H]1O)C1(O)CC(C)C1C (stereo partly drawn) [Example 2.37.102., (2S,3R,4S,5R,6R)-2-(((1-Hydroxy-2,3-dimethylcyclobutyl)(o-tolyl)methyl)thio)-6-(hydroxymethyl)-4-(4-(3,4,5-trifluorophenyl)-1H-1,2,3-triazol-1-yl)tetrahydro-2H-pyran-3,5-diol]
–	2.9 µM	180 nM	Cc1ccccc1C(S[C@@H]1O[C@H](CO)[C@H](O)[C@H](n2cc(-c3cc(F)c(F)c(F)c3)nn2)[C@H]1O)C1(O)CCCC1 (stereo partly drawn) [Example 2.38.102., (2S,3R,4S,5R,6R)-2-(((1-Hydroxycyclopentyl)(o-tolyl)methyl)thio)-6-(hydroxymethyl)-4-(4-(3,4,5-trifluorophenyl)-1H-1,2,3-triazol-1-yl)tetrahydro-2H-pyran-3,5-diol]
